Legend:
Type in all cases: cell-based
A-549 = experiment: SRB colorimetric cell growth inhibition assay, A-549; details: Homo sapiens, A549, A-549
Method in brief: (§1)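 Read-out: sulforhodamine B colorimetry of surviving cell mass after continued exposure of human tumour lines to sample. Values are means ± SD of three wells, expressed as GI, TGI or LC.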

LoVo = experiment: SRB colorimetric cell growth inhibition assay, LoVo; details: Homo sapiens, LoVo
Method in brief: as §1

SK-MEL-28 = experiment: SRB colorimetric cell growth inhibition assay, SK-MEL-28; details: Homo sapiens, SK-MEL-28, MEL-28
Method in brief: as §1

IGROV-ET = experiment: SRB colorimetric cell growth inhibition assay, IGROV-ET (ET-743 resistant); details: Homo sapiens, IGROV-ET
Method in brief: as §1

SK-BR-3 = experiment: SRB colorimetric cell growth inhibition assay, SK-BR-3; details: Homo sapiens, SK-BR-3, SK-BR-3
Method in brief: as §1

HeLa = experiment: SRB colorimetric cell growth inhibition assay, HeLa; details: Homo sapiens, HeLa
Method in brief: as §1

HT-29 = experiment: SRB colorimetric cell growth inhibition assay, HT-29; details: Homo sapiens, HT-29, HT-29
Method in brief: as §1

LoVo-Dox = experiment: SRB colorimetric cell growth inhibition assay, LoVo-Dox (MDR); details: Homo sapiens, LOVO-DOX
Method in brief: as §1

DU-145 = experiment: SRB colorimetric cell growth inhibition assay, DU-145; details: Homo sapiens, DU-145, DU-145
Method in brief: as §1

K-562 = experiment: SRB colorimetric cell growth inhibition assay, K-562; details: Homo sapiens, K562, K-562
Method in brief: as §1

LNCaP = experiment: SRB colorimetric cell growth inhibition assay, LNCaP; details: Homo sapiens, LNCaP, LN-caP
Method in brief: as §1

HeLa-APL = experiment: SRB colorimetric cell growth inhibition assay, HeLa-APL (aplidine resistant); details: Homo sapiens, HELA-APL
Method in brief: as §1

PANC-1 = experiment: SRB colorimetric cell growth inhibition assay, PANC-1; details: Homo sapiens, PANC-1, PANC-1
Method in brief: as §1

IGROV = experiment: SRB colorimetric cell growth inhibition assay, IGROV; details: Homo sapiens, IGROV
Method in brief: as §1

Compound `COc1cc2c(cc1OC)-c1c(-c3ccc(OC(=O)CCCC[C@@H]4SC[C@@H]5NC(=O)N[C@@H]54)c(OC)c3)c3c4cc(OC)c(OC(=O)CCCC[C@@H]5SC[C@@H]6NC(=O)N[C@@H]65)cc4oc(=O)c3n1CC2` [Compound 47] has a GI50 (A-549; GI=growth inhibition, read-out: GI50 A-549) of 3.26 µM, a CC50 (A-549; LC=cell killing (cytotoxic effect), read-out: LC50 A-549) of 10.3 µM and an IC (TGI) (A-549; TGI=total growth inhibition (cytostatic effect), read-out: TGI A-549) of 10.3 µM. For the same compound, the GI50 (LoVo; GI=growth inhibition, read-out: GI50 LOVO) was 3.97 µM, the CC50 (LoVo; LC=cell killing (cytotoxic effect), read-out: LC50 LOVO) was 10.3 µM and the IC (TGI) (LoVo; TGI=total growth inhibition (cytostatic effect), read-out: TGI LOVO) was 10.3 µM. For the same compound, the GI50 (SK-MEL-28; GI=growth inhibition, read-out: GI50 MEL-28) was 2.07 µM, the CC50 (SK-MEL-28; LC=cell killing (cytotoxic effect), read-out: LC50 MEL-28) was 10.3 µM and the IC (TGI) (SK-MEL-28; TGI=total growth inhibition (cytostatic effect), read-out: TGI MEL-28) was 10.3 µM. The GI50 (IGROV-ET; GI=growth inhibition, read-out: GI50 IGROV-ET) was 2.07 µM, the CC50 (IGROV-ET; LC=cell killing (cytotoxic effect), read-out: LC50 IGROV-ET) was 10.3 µM and the IC (TGI) (IGROV-ET; TGI=total growth inhibition (cytostatic effect), read-out: TGI IGROV-ET) was 10.3 µM. The GI50 (SK-BR-3; GI=growth inhibition, read-out: GI50 SK-BR-3) was 2.29 µM, the CC50 (SK-BR-3; LC=cell killing (cytotoxic effect), read-out: LC50 SK-BR-3) was 10.3 µM and the IC (TGI) (SK-BR-3; TGI=total growth inhibition (cytostatic effect), read-out: TGI SK-BR-3) was 6.01 µM. The GI50 (HeLa; GI=growth inhibition, read-out: GI50 HELA) was 0.537 µM, the CC50 (HeLa; LC=cell killing (cytotoxic effect), read-out: LC50 HELA) was 10.3 µM and the IC (TGI) (HeLa; TGI=total growth inhibition (cytostatic effect), read-out: TGI HELA) was 4.79 µM. It also gave a GI50 (HT-29; GI=growth inhibition, read-out: GI50 HT-29) of 1.25 µM, a CC50 (HT-29; LC=cell killing (cytotoxic effect), read-out: LC50 HT-29) of 10.3 µM and an IC (TGI) (HT-29; TGI=total growth inhibition (cytostatic effect), read-out: TGI HT-29) of 10.3 µM. It also gave a GI50 (LoVo-Dox; GI=growth inhibition, read-out: GI50 LOVO-DOX) of 8.09 µM, a CC50 (LoVo-Dox; LC=cell killing (cytotoxic effect), read-out: LC50 LOVO-DOX) of 10.3 µM and an IC (TGI) (LoVo-Dox; TGI=total growth inhibition (cytostatic effect), read-out: TGI LOVO-DOX) of 10.3 µM. For the same compound, the GI50 (DU-145; GI=growth inhibition, read-out: GI50 DU-145) was 1.08 µM, the CC50 (DU-145; LC=cell killing (cytotoxic effect), read-out: LC50 DU-145) was 10.3 µM and the IC (TGI) (DU-145; TGI=total growth inhibition (cytostatic effect), read-out: TGI DU-145) was 4.61 µM. It also gave a GI50 (K-562; GI=growth inhibition, read-out: GI50 K-562) of 0.564 µM, a CC50 (K-562; LC=cell killing (cytotoxic effect), read-out: LC50 K-562) of 10.3 µM and an IC (TGI) (K-562; TGI=total growth inhibition (cytostatic effect), read-out: TGI K-562) of 3.74 µM. For the same compound, the GI50 (LNCaP; GI=growth inhibition, read-out: GI50 LN-caP) was 0.0884 µM, the CC50 (LNCaP; LC=cell killing (cytotoxic effect), read-out: LC50 LN-caP) was 5.87 µM and the IC (TGI) (LNCaP; TGI=total growth inhibition (cytostatic effect), read-out: TGI LN-caP) was 1.59 µM. For the same compound, the GI50 (HeLa-APL; GI=growth inhibition, read-out: GI50 HELA-APL) was 5.75 µM, the CC50 (HeLa-APL; LC=cell killing (cytotoxic effect), read-out: LC50 HELA-APL) was 10.3 µM and the IC (TGI) (HeLa-APL; TGI=total growth inhibition (cytostatic effect), read-out: TGI HELA-APL) was 10.3 µM. For the same compound, the GI50 (PANC-1; GI=growth inhibition, read-out: GI50 PANC-1) was 3.86 µM, the CC50 (PANC-1; LC=cell killing (cytotoxic effect), read-out: LC50 PANC-1) was 10.3 µM and the IC (TGI) (PANC-1; TGI=total growth inhibition (cytostatic effect), read-out: TGI PANC-1) was 10.3 µM. For the same compound, the GI50 (IGROV; GI=growth inhibition, read-out: GI50 IGROV) was 0.764 µM, the CC50 (IGROV; LC=cell killing (cytotoxic effect), read-out: LC50 IGROV) was 10.3 µM and the IC (TGI) (IGROV; TGI=total growth inhibition (cytostatic effect), read-out: TGI IGROV) was 10.3 µM.
